This is an account of results in patent US6391916B1, “Enediyne derivatives” (The Hong Kong University of Science and Technology, priority 2000, dated 2002).

Marks after values point to notes of the source that are not given here. Some results are limits rather than exact numbers.

The test system of series [1] is φX174 RFI (Form I) double stranded DNA. The series is described as follows: DNA cleavage of supercoiled φX174 RFI (Form I) DNA, agarose gel electrophoresis and densitometry. Format: biochemical. The following applies: for net DNA cut (%) / DNA cleavage potency relative to Compound A: 37° C.; for net DNA cut (%): TEA buffer pH 8.5, 20% DMSO; for DNA cleavage potency relative to Compound A: 72 hours. On the procedure:
DNA cleavage studies on the compounds of this invention were performed by using supercoiled, covalently closed, circular φX174 RFI (Form I) double stranded DNA. Thus, a 54.3 μM/bp (micromolar per base pair) solution of φX174 RFI DNA and a compound in the indicated concentration in TEA buffer (pH 8.5) containing 20% DMSO was incubated at 37° C. for 48-72 hours and analyzed by 1% agarose gel electrophoresis to separate the various forms of DNA. DNA cleavage was indicated by the formation of nicked relaxed circular DNA (Form II) or linearized DNA (Form III), which was visualized using ethidium bromide stain. A photo picture of the gel was taken over a 365 nanometer ultra-violet light transilluminator and the relative densities of DNA bands were quantitated by a GS-700 imaging densitometer (BIO-RAD). The percentage of net DNA cleavage was calculated by the following equation:
Net DNA Cleavage (%)={[(Form II)s+2×(Form III)s]/[(Form I)s+(Form II)s+2×(Form III)s]×100}−{(Form II)c/[(Form I)c+(Form II)c]×100}
wherein the subscripts “s” and “c” refer to as the samples and controls, respectively.

Series [2] has as its system P388 mice T cell leukemia cells. As to the kind of experiment: Cytotoxicity by MTT assay in P388 cells. Format: cell-based, mouse. How it is done:
Cytotoxicity was assessed in P388 mice T cell leukemia cells by MTT [3-(4,5-dimethylthiazol-2-yl)-2,5-diphenyl-2H-tetrazolium bromide] assay. Cell suspension (1×10^5 cells/mL) was plated in 96 well microtiter plates at 50 μL/well and it was followed by 50 μL/well of the test compound in serially diluted concentrations. The cells were incubated at 37° C. in a humidified atmosphere containing 5% CO2 in air for 72 hours at which time the tetrazolium dye, MTT, was added. After another 3 hours incubation, 100 μL/well of acidified 2-propanol (0.04 N HCl) was added. The optical densities of the plates were measured with a microplate reader (BIO-RAD) at 570 nm. The greater the absorbance the greater the number of live cells. The results are expressed as an IC50 which is the drug concentration required to inhibit cell proliferation to 50% of that of untreated control cells. The detailed procedure is found in Mosman, J. Immunol. Methods 65:55 (1983); Ferrari et al., Immunol. Methods 131:165 (1990).

Series [3] concerns φX174 RFI (Form I) double stranded DNA. As to the kind of experiment: DNA cleavage of supercoiled φX174 RFI (Form I) DNA, agarose gel electrophoresis and densitometry. Format: biochemical. The following applies: FIG. 1; 100 μM, pH range 7.0-8.5, 72 hours.
The conditions of series [4]: at 37° C.; cited from earlier work.
[5] abbreviates: P388 mouse leukemia cells, 37° C., 72 h, 5% CO2.

Consider `COCC(=O)OC(/C1=C/C#CCCCCC#C1)c1cccc2ccccc12` (stereo not drawn) [Compound 43a, 3-[(1′-Methoxyacetoxy-1′-(1″-naphthyl))methyl]cyclodeca-3-en-1,5-diyne], for which the “net DNA cut (%)” value in series [1] (At 20 μM) is 67.4[b] %. The molecule also displayed an IC50 in series [2] (setting [5]) of 3.8 µM.
`CC(=O)OC1C#CCCCCC#C/C1=C\c1ccccc1` (stereo not drawn) [Compound 29, (E)-3-Acetoxy-4-(phenylmethylidene)cyclodeca-1,5-diyne]: the “DNA cleavage activity (in words)” value in series [3] is reported as “slightly higher DNA cleavage activity in the basic pHs”. The “net DNA cut (%)” value in series [1] (At 20 μM) was 19.3[b] %. In addition, in series [2] (setting [5]), the concentration for half-maximal inhibition (IC50) was determined as 48 µM.
On to `COc1ccc(OC)c(C(=O)OC2C#CCCCCC#C/C2=C\c2cccc3ccccc23)c1` (stereo not drawn) [Compound 40, (E)4-(1′-Naphthylmethylidene)-3-((2″,5″-dimethoxybenzoyl)oxy)cyclodeca-1,5-diyne], for which, in series [1] (At 5 μM), the “net DNA cut (%)” value was 35.6[d] %. In addition, the “DNA cleavage activity (in words)” value in series [1] (FIG. 5, 5 μM, pH 8.5) is given as “little effect as compared to the acetate in Compound 30b”. For the same molecule, half-maximal inhibition in series [2] (setting [5]) (IC50) was put at 17 µM.
Take `C1#CCCCCC#C/C(C2OCc3ccccc32)=C\1` (stereo not drawn) [Compound 51, 3-[2′,5′-Dihydrobenzofuran-2′-yl]cyclodeca-3-en-1,5-diyne]: in series [1] (FIG. 6, 100 μM, pH 8.5), the “DNA cleavage activity (in words)” value was “less potent than Compound 42”.
As for `COc1ccc(COCC(=O)OC2C#CCCCCC#C/C2=C\c2cccc3ccccc23)cc1` (stereo not drawn) [Compound 39, (E)-3-[(4′-Methoxybenzyl)oxy]acetoxy-4-(1″-naphthylmethylidene)cyclodeca-1,5-diyne], the “net DNA cut (%)” value in series [1] (At 5 μM) was 26.1[d] %. For the same molecule, in series [2] (setting [5]), the midpoint of inhibition, the IC50, lay at 97 µM.
For `CC(=O)OC1C#CCCCCC#C/C1=C\c1ccccc1CO` (stereo not drawn) [Compound 35a, (E)-3-Acetoxy-4-[2′-((hydroxymethyl)phenyl)methylidene]cyclodeca-1,5-diyne], the “net DNA cut (%)” value in series [1] (At 100 μM) is 23.5[c] %. The same molecule showed an IC50 in series [2] (setting [5]) of 21 µM.
With `O=C(COCc1ccccc1)OC1C#CCCCCC#C/C1=C\c1cccc2ccccc12` (stereo not drawn) [Compound 38, (E)-3-(Benzyloxy)acetoxy4-(1′-naphthylmethylidene)cyclodeca-1,5-diyne], the “net DNA cut (%)” value in series [1] (At 5 μM) is 38.6[d] %. In addition, the half-maximal inhibitory concentration (IC50) in series [2] (setting [5]) was found to be 6.7 µM.
Consider `C1#CCCCCC#CC=C1` [cyclodeca-1,5-diyn-3-ene], for which the half-life in series [4] was 18 h.
For the molecule `O=C(OC1C#CCCCCC#C/C1=C\c1cccc2ccccc12)c1cccc2cc3ccccc3cc12` (stereo not drawn) [Compound 41, (E)-3-[(1′-Anthracenecarbonyl)oxy]-4-(1″-naphthylmethylidene)cyclodeca-1,5-diyne], the “net DNA cut (%)” value in series [1] (At 5 μM) is 10.6[d] %. The “DNA cleavage activity (in words)” value in series [1] (FIG. 5, 5 μM, pH 8.5) is given as “reduced the DNA cleaving potency”. This molecule also came in with a concentration for half-maximal inhibition (IC50) in series [2] (setting [5]) of 11 µM.
In the case of `COCC(=O)OC(/C1=C/C#CCCCCC#C1)c1ccc2ccccc2c1` (stereo not drawn) [Compound 43b, 3-[(1′-Methoxyacetoxy-1′-(2″-naphthyl))methyl]cyclodeca-3-en-1,5-diyne], the “net DNA cut (%)” value in series [1] (At 20 μM) was 77.8[b] %. The same molecule had an IC50 in series [2] (setting [5]) of 9.6 µM.
In the case of `OC1C#CCCCCC#C/C1=C\c1ccccc1` (stereo not drawn) [Compound 6, (E)-4-(Phenylmethylidene)cyclodeca-1,5-diyn-3-ol], the “DNA cleavage activity (in words)” value in series [3] is recorded as “less potent compared to the corresponding acetate, Compound 29”.
`COCC(=O)OC1C#CCCCCC#C/C1=C\c1ccccc1CO[Si](C)(C)C(C)(C)C` (stereo not drawn) [Compound 34b, (E)-4-[2′-((((tert-butyldimethyl)silyloxy)methyl)phenyl)methylidene]-3-(methoxyacetoxy)cyclodeca-1,5-diyne]: the “net DNA cut (%)” value in series [1] (At 100 μM) was 14.4[c] %. In addition, the IC50 in series [2] (setting [5]) is over 50 µM.
Consider `COCC(=O)OC(/C1=C/C#CCCCCC#C1)c1ccccc1` (stereo not drawn) [Compound 42, 3-[(1′-Methoxyacetoxy-1′-phenyl)methyl]cyclodeca-3-en-1,5-diyne], for which, in series [1] (At 20 μM), the “net DNA cut (%)” value is 12.9[b] %. Moreover, the “DNA cleavage potency relative to Compound A” value in series [1] (FIG. 2, pH 8.5) is reported as “ca. 100 fold”. The molecule also had a half-inhibitory concentration (IC50) in series [2] (setting [5]) of 7.7 µM.
Take `CC(=O)OC1C#CCCCCC#C/C1=C\c1ccc2ccccc2c1` (stereo not drawn) [Compound 30c, (E)-3-Acetoxy-4-(2′-naphthylmethylidene)cyclodeca-1,5-diyne]: the “net DNA cut (%)” value in series [1] (At 20 μM) was 82.3[b] %. In addition, the IC50 is 2.8 µM in series [2] (Mus musculus, P388 cells) and 2.8 µM in series [2] (setting [5]).
Molecule `CCC(=O)OC1C#CCCCCC#C/C1=C\c1cccc2ccccc12` (stereo not drawn) [Compound 36, (E)-4-(1′-Naphthylmethylidene)-3-(propanoyloxy)cyclodeca-1,5-diyne] registered an IC50 in series [2] (setting [5]) of 10 µM.
With `COCC(=O)OC(/C1=C/C#CCCCCC#C1)c1ccccc1CO` (stereo not drawn) [Compound 48], the concentration for half-maximal inhibition (IC50) in series [2] (setting [5]) is 8.1 µM.
`COc1ccc(C(O)/C2=C/C#CCCCCC#C2)cc1` (stereo not drawn) [Compound 33, 3-[1′-Hydroxy-1′-(4″-methoxyphenyl)methyl]cyclodeca-3-en-1,5-diyne]: the “DNA cleavage activity (in words)” value in series [1] (FIG. 4, 20 μM, pH 8.5) is listed as “reduced DNA cleavage activity”.
As for `COCC(=O)OC1C#CCCCCC#C/C1=C\c1ccccc1CO` (stereo not drawn) [Compound 35b], the “net DNA cut (%)” value in series [1] (At 100 μM) is 17.6[c] %. The molecule further showed an IC50 in series [2] (setting [5]) of 16 µM.
For the molecule `COCC(=O)OC(C1=CC#CCCCCC#C1)c1ccccc1CO[Si](C)(C)C(C)(C)C` (stereo not drawn) [Compound 45, 3-[1′-(2″-(((tert-Butyldimethyl)silyloxy)methyl)phenyl)-1′-(methoxyacetoxy)methyl]cyclodeca-3en-1,5-diyne], the “net DNA cut (%)” value in series [1] (At 100 μM) was 4.13[c] %. The molecule further came in with an IC50 in series [2] (setting [5]) of 12 µM.
Turning to `COc1ccc(/C=C2\C#CCCCCC#CC2OC(C)=O)cc1` (stereo not drawn) [Compound 30a, (E)-3-Acetoxy-4-[(4′-methoxyphenyl)methylidene]cyclodeca-1,5-diyne], the “net DNA cut (%)” value in series [1] (At 20 μM) is 86.4[b] %. In series [2] (setting [5]), this molecule returned an IC50 of 15 µM.
With `COCC(=O)OC1C#CCCCCC#C/C1=C\c1cccc2ccccc12` (stereo not drawn) [Compound 32b, (E)-3-Methoxyacetoxy-4-(1′-naphthylmethylidene)cyclodeca-1,5-diyne], the “net DNA cut (%)” value in series [1] (At 5 μM) is 38.8[d] %; in series [1] (At 20 μM), 87.4[b] %. In series [2] (setting [5]), this molecule had a half-maximal inhibitory concentration (IC50) of 12 µM.
`CC(=O)OC1C#CCCCCC#C/C1=C\c1ccccc1CO[Si](C)(C)C(C)(C)C` (stereo not drawn) [Compound 34a, (E)-3-Acetoxy-4-[2′-((((tert-butyldimethyl)silyloxy)methyl)phenyl)methylidene]cyclodeca-1,5-diyne]: the “net DNA cut (%)” value in series [1] (At 100 μM) was 10.7[c] %. In addition, in series [2] (setting [5]), the IC50 was over 50 µM.
`CC(=O)OC1C#CCCCCC#C/C1=C\c1cccc2ccccc12` (stereo not drawn) [Compound 30b, (E)-3-Acetoxy-4-(1′-naphthylmethylidene)cyclodeca-1,5-diyne]: the “net DNA cut (%)” value in series [1] (At 5 μM) was 33.5[d] %; in series [1] (At 20 μM), 77.7[b] %. Besides, the IC50 was found to be 2.4 µM in series [2] (Mus musculus, P388 cells) and 2.4 µM in series [2] (setting [5]).
As for `COCC(=O)OC1C#CCCCCC#C/C1=C\c1ccc2ccccc2c1` (stereo not drawn) [Compound 32c, (E)-3-Methoxyacetoxy-4-(2′-naphthylmethylidene)cyclodeca-1,5-diyne], in series [1] (At 20 μM), the “net DNA cut (%)” value is 71.9[b] %. Also, in series [2] (setting [5]), the IC50 came to 28 µM.
As for `COCC(=O)OC1C#CCCCCC#C/C1=C\c1ccccc1` (stereo not drawn) [Compound 31, (E)-3-Methoxyacetoxy4-(phenylmethylidene)cyclodeca-1,5-diyne], the “net DNA cut (%)” value in series [1] (At 20 μM) is 13.2[b] %. Also, the “DNA cleavage potency relative to Compound A” value in series [1] (FIG. 2, pH 8.5) is on record as “ca. 100 fold”. Also, the “DNA cleavage activity (in words)” value in series [1] (FIG. 2, concentration range 5-100 μM, pH 8.5) is reported as “same level of DNA cleavage activity as enediyne, Compound 42”. The molecule further showed a concentration for half-maximal inhibition (IC50) in series [2] (setting [5]) of 23 µM.
As for `CCCCCCCC(=O)OC1C#CCCCCC#C/C1=C\c1cccc2ccccc12` (stereo not drawn) [Compound 37, (E)-4-(1′-Naphthylmethylidene)-3-(octanoyloxy)cyclodeca-1,5-diyne], the “net DNA cut (%)” value in series [1] (At 5 μM) was 4.67[d] %. The “DNA cleavage activity relative to Compound 32b” value in series [1] (FIG. 5, 5 μM, pH 8.5) was “ca. one eighth”. This molecule showed an IC50 in series [2] (setting [5]) of 13 µM.
